Results as given in paper PMC9415646, “Improving Aqueous Solubility and In Vitro Pharmacokinetic Properties of the 3-Nitroimidazo[1,2-a]pyridine Antileishmanial Pharmacophore” (Pharmaceuticals, 2022).

Assays:
[1] = system: L. infantum promastigotes; test: Antileishmanial activity against L. infantum promastigotes (luciferase assay); assay type: cell-based; conditions: Leishmania infantum, 72 h, read-out: EC50 L. infantum Pro.
Protocol: L. infantum promastigotes (MHOM/MA/67/ITMAP-263, CNR Leishmania, Montpellier, France, expressing luciferase activity) were used in the following tests. The effects of the tested compounds on the growth of L. infantum promastigotes were assessed by Luciferase Assay. Briefly, promastigotes in log-phase in RPMI 1640 medium supplemented with 10% fetal calf serum (FCS), 2 mM L-glutamine and antibiotics (100U/mL penicillin, 100 µg/mL streptomycin and 50µg/mL geneticin), were incubated at an average density of 10^6 parasites/mL (100 µL/well) in sterile 96-well plates with various concentrations of compounds dissolved in DMSO (final concentration less than 0.5% v/v), in duplicate. Appropriate controls (100 µL/well) treated by DMSO and reference drugs (purchased for the majority from Sigma Aldrich) were added to each set of experiments. After a 72 h incubation period at 24 °C, each plate-well was then microscope-examined for detecting possible precipitate formation. To estimate the luciferase activities of promastigotes, 80 µL of each well are transferred in white 96-well plates, Steady Glow reagent (Promega) was added according to manufacter’s instructions, and plates were incubated for 2 min. The luminescence was measured in a FLUOstar Omega (BMG Labtech, Champigny-sur-Marne, France). […] EC50 were calculated by non-linear regression analysis processed on dose–response curves, using TableCurve 2D V5 software.

[2] = system: L. donovani promastigotes; test: Antileishmanial activity against L. donovani promastigotes (MTT assay); assay type: cell-based; conditions: Leishmania donovani; promastigotes, 72 h, MTT; read-out: EC50 L. donovani Pro.
Protocol: The Leishmania species used in this study were L. donovani (MHOM/IN/00/DEVI) purchased from CNR Leishmania (Montpellier, France). Leishmania promastigote forms were grown in Schneider’s Drosophila medium (Life Technologies, Saint-Aubin, France) supplemented with 100 U/mL penicillin, 100 µg/mL streptomycin, 2 mM L-glutamine and 20% FCS (Life Technologies, Saint-Aubin, France) at 27 °C. The in vitro evaluation of the tested compound’s antileishmanial activity on promastigote forms was carried out by MTT assay according to the Mosmann protocol with some modifications. Briefly, promastigotes in log-phase were incubated at an average density of 10^6 parasites/mL in sterile 96-well plates with various concentrations of compound dissolved in DMSO (final concentration less than 0.5% v/v), in duplicate. Appropriate controls treated with DMSO, Miltefosine, Amphotericin B, Fexinidazole, and Fexinidazole sulfone (reference drugs purchased from Sigma-Aldrich, Saint-Louis, Missouri, USA) were added to each set of experiments. After a 72 h incubation period at 27 °C, parasitic metabolic activity was determined. Each plate-well was then microscope-analyzed to detect any precipitate formation. 20 µL of MTT (3-(4,5-dimethylthiazol-2-yl)-2,5-diphenyltetrazolium bromide) (Sigma-Aldrich, Saint-Louis, Missouri, USA) solution (5 mg/mL in PBS) were added to each well and incubated for 4 h at 27 °C. The enzyme reaction was then stopped by addition of 100 µL of 50% isopropanol–10% sodium dodecyl sulfate. Plates were shaken vigorously at 300 rpm for 10 min. The absorbance was measured at 570 nm in a BIO-TEK Elx808 (Biotek, Colmar, France) absorbance microplate reader. […] EC50 values were calculated by non-linear regression analysis processed dose-response curves, using TableCurve 2D V5.0 software (Systat Software Inc. (Palo Alto, CA, USA)). EC50 values represent the mean value calculated from at least three separate experiments.

[3] = system: L. infantum intracellular amastigotes; test: Antileishmanial activity on L. infantum intracellular (intra-THP1 macrophage) amastigotes; assay type: cell-based; conditions: Leishmania infantum, THP-1; intramacrophage (THP1) amastigotes, 120 h; read-out: EC50 L. infantum Intra. Ama.
Protocol: The undifferentiated THP1 human monocyte cells (acute monocytic leukemia cell line purchased from ATCC, ref TIB-202) were grown in RPMI 1640 medium (Life Technologies, Saint-Aubin, France) supplemented with 10% FCS (Life Technologies, Saint-Aubin, France), 100 U/mL penicillin, 100 µg/mL streptomycin and 2 mM L-glutamine at 37 °C, 5% CO2. The culture was maintained between 3.10^5 and 1.10^6 cells/mL. The in vitro evaluation of the antileishmanial activity on intracellular amastigote forms of the tested compound was assessed as below.
Briefly, 200 μL of THP-1 cells with Phorbol 12-Myristate 13-Acetate (final concentration 50 ng/mL) were seeded in 96-well plates at an average density of 0.77 × 10^5 cells/mL and incubated for 96 h at 37 °C, 5% CO2. Promastigotes were centrifuged at 3000 rpm for 10 min and the supernatant replaced by the same volume of complete RPMI pH 5.4 and incubated for 24 h at 27 °C. Differentiated THP-1 cells were then infected by acidified promastigotes with an infection ratio of twenty parasites for one macrophage and incubated for 24 h at 37 °C, 5% CO2.
(§1) • Luciferase activity and determination of EC50 were performed as above.

[4] = system: L. infantum axenic amastigotes; test: Antileishmanial activity on L. infantum axenic amastigotes (luciferase assay); assay type: cell-based; conditions: Leishmania infantum, 48 h, read-out: EC50 L. infantum Axenic Ama.
Protocol: L. infantum promastigotes were harvested in logarithmic phase of growth by centrifugation at 900× g for 10 min. The supernatant was removed carefully and was replaced by the same volume of RPMI 1640 complete medium at pH 5.4 and incubated for 24 h at 24 °C. The acidified promastigotes were then incubated for 24 h at 37 °C in a ventilated flask to transform them into axenic amastigotes. The amastigote stage was checked both by electron microscopy (short flagellum with small bulbous tip extending beyond a spherical cell body) and RT-PCR to confirm the overexpression of ATG8 and amastin genes in amastigotes, relative to promastigotes. The effects of the tested compounds on the growth of L. infantum axenic amastigotes were assessed as follows. L. infantum amastigotes were incubated at a density of 2 × 10^6 parasites/mL in sterile 96-well plates with various concentrations of compounds dissolved in DMSO (final concentration less than 0.5% v/v), in duplicate. Appropriate controls treated with DMSO, amphotericin B, miltefosine, fexinidazole and fexinidazole sulfone were added to each set of experiments. After a 48 h incubation period at 37 °C, each plate-well was then microscopically examined to detect any precipitate formation.
as §1

SMILES | EC50 [1] | melting point | EC50 [2] | EC50 [3] | EC50 [4]
O=[N+]([O-])c1c(CS(=O)(=O)c2ccc(OC(F)(F)F)cc2)nc2c(Br)cc(Cl)cn12 [Compound 2f, 8-Bromo-6-Chloro-3-Nitro-2-[(4-Trifluoromethoxyphenylsulfonyl)methyl]imidazo[1,2-a] pyridine] | 6.7 ± 0.8 µM | 178 °C | 4.4 ± 0.1 µM | 4.2 ± 0.3 µM | 2.7 ± 0.4 µM
COc1ccc(S(=O)(=O)Cc2nc3c(Br)cc(Cl)cn3c2[N+](=O)[O-])cc1 [Compound 2g, 8-Bromo-6-Chloro-2-[(4-Methoxyphenylsulfonyl)methyl]-3-Nitroimidazo[1,2-a]pyridine] | 9.3 ± 1.2 µM | 226 °C | 2.8 ± 0.9 µM | 2.2 ± 0.1 µM | 2.3 ± 0.3 µM
O=[N+]([O-])c1c(CS(=O)(=O)c2ccc(O)cc2)nc2c(Sc3ccc(Cl)cc3)cc(Cl)cn12 [Compound 3a, 4-{[(6-Chloro-8-[(4-Chlorophenyl)thio]-3-Nitroimidazo[1,2-a]pyridin-2-yl)methyl]sulfonyl}phenol] | 5.6 ± 0.9 µM | 241 °C | 0.8 ± 0.2 µM | 2.7 ± 0.5 µM | 1.4 ± 0.3 µM
O=[N+]([O-])c1c(CS(=O)(=O)c2ccc(Cl)cc2)nc2c(Sc3ccc(Cl)cc3)cc(Cl)cn12 [Compound 3b, 6-Chloro-2-[(4-Chlorophenylsulfonyl)methyl]-8-[(4-Chlorophenyl)thio]-3-Nitroimidazo[1,2-a]pyridine] | 1.2 ± 0.1 µM | 221 °C | 1.4 ± 0.1 µM | 0.7 ± 0.1 µM | 1 ± 0.1 µM
O=[N+]([O-])c1c(CS(=O)(=O)c2ccc(F)cc2)nc2c(Sc3ccc(Cl)cc3)cc(Cl)cn12 [Compound 3c, 6-Chloro-8-[(4-Chlorophenyl)thio]-2-[(4-Fluorophenylsulfonyl)methyl]-3-Nitroimidazo[1,2-a]pyridine] | 1.5 ± 0.1 µM | 197 °C | 0.9 ± 0.1 µM | 1.6 ± 0.1 µM | 0.2 ± 0.1 µM
O=[N+]([O-])c1c(CS(=O)(=O)c2ccc(C(F)(F)F)cc2)nc2c(Sc3ccc(Cl)cc3)cc(Cl)cn12 [Compound 3d, 6-Chloro-8-[(4-Chlorophenyl)thio]-3-Nitro-2-[(4-Trifluoromethylphenylsulfonyl)methyl]imidazo[1,2-a]pyridine] | 3.3 ± 0.4 µM | 222 °C | 1.8 ± 0.2 µM | 4.4 ± 0.2 µM | 0.8 ± 0.1 µM
O=[N+]([O-])c1c(CS(=O)(=O)c2ccc(OC(F)(F)F)cc2)nc2c(Sc3ccc(Cl)cc3)cc(Cl)cn12 [Compound 3e, 6-Chloro-8-[(4-Chlorophenyl)thio]-3-Nitro-2-[(4-Trifluoromethoxyphenylsulfonyl)methyl]imidazo[1,2-a]pyridine] | 3.1 ± 0.2 µM | 173 °C | 2.6 ± 0.2 µM | 1.6 ± 0.1 µM | 0.8 ± 0.2 µM
COc1ccc(S(=O)(=O)Cc2nc3c(Sc4ccc(Cl)cc4)cc(Cl)cn3c2[N+](=O)[O-])cc1 [Compound 3f, 6-Chloro-8-[(4-Chlorophenyl)thio]-2-[(4-Methoxyphenylsulfonyl)methyl]-3-Nitroimidazo[1,2-a]pyridine] | 1.2 ± 0.1 µM | 214 °C | 1.2 ± 0.1 µM | 0.9 ± 0.1 µM | 0.5 ± 0.1 µM
O=[N+]([O-])c1c(CS(=O)(=O)C2CC2)nc2c(Sc3ccc(Cl)cc3)cc(Cl)cn12 [Compound 3h, 6-Chloro-8-[(4-Chlorophenyl)thio]-2-[(cyclopropylsulfonyl)methyl]-3-Nitroimidazo[1,2-a]pyridine] | 2.2 ± 0.3 µM | 196 °C | 2.2 ± 0.3 µM | 3.7 ± 0.2 µM | 2.4 ± 0.1 µM
O=[N+]([O-])c1c(CS(=O)(=O)CCC(F)(F)F)nc2c(Sc3ccc(Cl)cc3)cc(Cl)cn12 [Compound 3i, 6-Chloro-8-[(4-Chlorophenyl)thio]-3-Nitro-2-[(3,3,3-Trifluoropropylsulfonyl)methyl]imidazo[1,2-a]pyridine] | 1.4 ± 0.1 µM | 183 °C | 1.4 ± 0.2 µM | 1.2 ± 0.1 µM | 0.8 ± 0.3 µM
O=[N+]([O-])c1c(CS(=O)(=O)CCC(F)(F)F)nc2c(S(=O)(=O)c3ccc(Cl)cc3)cc(Cl)cn12 [Compound 6b, 6-Chloro-8-[(4-Chlorophenyl)sulfonyl]-3-Nitro-2-[(3,3,3-Trifluoropropylsulfonyl)methyl] imidazo[1,2-a]pyridine] | 13.7 ± 0.9 µM | 233 °C | 1.3 ± 0.2 µM | 8.3 ± 0.8 µM | 2.3 ± 0.3 µM
O=[N+]([O-])c1c(CS(=O)(=O)CCC(F)(F)F)nc2c(-c3ccncc3)cc(Cl)cn12 [Compound 7, 6-Chloro-3-Nitro-8-(Pyridin-4-yl)-2-[(3,3,3-Trifluoropropylsulfonyl)methyl]imidazo[1,2-a]pyridine] | 14 ± 0.4 µM | 184 °C | 3.1 ± 0.6 µM | 3.7 ± 0.4 µM | 14 ± 0.9 µM
CSc1ccc(OCc2ncc([N+](=O)[O-])n2C)cc1 [Fexinidazole, reference compound] | 1 ± 0.1 µM |  | 1.2 ± 0.2 µM | 15.9 ± 3.2 µM | 7.8 ± 2.3 µM
O=[N+]([O-])c1c(CS(=O)(=O)c2ccccc2)nc2c(Br)cc(Cl)cn12 [Hit A, 8-Bromo-6-chloro-3-nitro-2-(phenylsulfonylmethyl)imidazo[1,2-a]pyridine, reference compound] | 8.7 ± 0.7 µM |  | 5.3 ± 1.1 µM | 2.1 ± 0.1 µM | 16.4 ± 1.3 µM
O=[N+]([O-])c1c(CS(=O)(=O)c2ccccc2)nc2c(Sc3ccc(Cl)cc3)cc(Cl)cn12 [Hit B, reference compound] | 0.6 ± 0.1 µM |  | 1 ± 0.3 µM | 3.2 ± 0.1 µM | 1.7 ± 0.3 µM
